Data: patent US20240122180A1, “FUNGICIDAL HALOMETHYL KETONES AND HYDRATES AND THEIR MIXTURES” (FMC Corporation, priority 2020, published 2024)

Key:
Type in all cases: in vivo
[1] = system: Phakopsora pachyrhizi (the causal agent of Asian soybean rust); experiment: Test F: Compound 32 or 64 alone and in mixtures on soybean seedlings, observed (Obsd) and Colby expected (Exp) disease control; conditions: for pest or weed control at 37.333 ppm: cyproconazole 37.333 ppm alone; for pest or weed control at 64.883 ppm: cyproconazole 64.883 ppm alone; for pest or weed control at 544.265 ppm: flutriafol 544.265 ppm alone; for pest or weed control at 1124.02 ppm: flutriafol 1124.021 ppm alone; for pest or weed control at 486.921 ppm: tebuconazole 486.921 ppm alone; for pest or weed control at 841.166 ppm: tebuconazole 841.166 ppm alone; for pest or weed control at 46.795 ppm: epoxiconazole 46.795 ppm alone; for pest or weed control at 89.631 ppm: epoxiconazole 89.631 ppm alone; for pest or weed control at 242.823 ppm: fenpropimorph 242.823 ppm alone; for pest or weed control at 458.587 ppm: fenpropimorph 458.587 ppm alone
Excerpt: The general protocol for preparing test compositions for Test F was as follows: Compound 32, Compound 64, azoxystrobin, benzovindiflupyr, bixafen, chlorothalonil, cyproconazole, epoxiconazole, fenpropidin, fenpropimorph, fluindapyr, flutriafol, fluxapyroxad, metominostrobin, picoxystrobin, prothioconazole, pydiflumetofen, pyraclostrobin, tebuconazole and trifloxystrobin were obtained as unformulated, technical-grade materials. Copper hydroxide and mancozeb was obtained as a formulated product marketed under the trademarks KOCIDE 3000 and MANZATE, respectively. Unformulated materials were first dissolved in acetone and then suspended at the desired concentration (in ppm) in acetone and purified water (50/50 mix by volume) containing 250 ppm of the surfactant Trem® 014 (polyhydric alcohol esters). Formulated materials were dispersed in sufficient water to give the desired concentration, and neither organic solvent nor surfactant was added to the suspension. The resulting test mixtures were then used in Test F. The tests were run on four individual plants and the results reported as the mean average of the four plants.
The presence of a synergistic effect between two active ingredients was established with the aid of the Colby equation (see Colby, S. R. “Calculating Synergistic and Antagonistic Responses of Herbicide Combinations”, Weeds, (1967), 15, 20-22):
Using the method of Colby, the presence of a synergistic interaction between two active ingredients is established by first calculating the predicted activity, p, of the mixture based on activities of the two components applied alone. If p is lower than the experimentally established effect, synergism has occurred. In the equation above, A is the fungicidal activity in percentage control of one component applied alone at rate x. The B term is the fungicidal activity in percentage control of the second component applied at rate y. The equation estimates p, the expected fungicidal activity of the mixture of A at rate x with B at rate y if their effects are strictly additive and no interaction has occurred.
The test mixture was sprayed to the point of run-off on soybean seedlings. The following day the seedlings were inoculated with a spore suspension of Phakopsora pachyrhizi (the causal agent of Asian soybean rust) and incubated in a saturated atmosphere at 22° C. for 24 h and then moved to a growth chamber at 22° C. for 8 days, after which time visual disease ratings were made.
Results for Test F are given in Tables B-1 through I-1 for Compound 32 and Tables B-2 through I-2 for Compound 64. Each table corresponds to a set of evaluations performed together at the same time. In each table, a rating of 100 indicates 100% disease control and a rating of 0 indicates no disease control (relative to the controls). Columns labeled “Obsd” indicate the average of results observed from test run on four individual plants. Columns labeled “Exp” indicate the expected value for each treatment mixture using the Colby equation.

[2] = system: Puccinia recondita f. sp. tritici (the causal agent of wheat leaf rust); experiment: Test B: preventive spray on wheat seedlings, disease rating (100 = 100% control; * 50 ppm, ** 10 ppm, *** 250 ppm); conditions: 10 ppm test suspension; wheat seedlings; 100 = 100% disease control
In short: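 Wheat seedlings sprayed to run-off with compound in acetone/water (50/50) containing 250 ppm PEG400, inoculated next day with Puccinia recondita f. sp. tritici spores. Held 24 h saturated at 20° C, then 6 days at 20° C; disease control rated 0–100 relative to controls.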

[3] = system: Phakopsora pachyrhizi (the causal agent of Asian soybean rust); experiment: Test A: preventive spray on soybean seedlings, visual disease rating (100 = 100% control; * 50 ppm, ** 10 ppm, *** 250 ppm); conditions: 10 ppm test suspension; soybean seedlings; 100 = 100% disease control
In short: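 Soybean seedlings sprayed to run-off with compound suspended in acetone/water with 250 ppm PEG400 surfactant, inoculated next day with P. pachyrhizi spores. Kept 24 h saturated at 22 °C, then 8 days at 22 °C before visual rating of disease control (0-100) relative to controls.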

[4] = Phakopsora pachyrhizi, Table E-2
[5] = Phakopsora pachyrhizi, Table I-1
[6] = Phakopsora pachyrhizi, Table I-2
[7] = Phakopsora pachyrhizi, Table D-1
[8] = Phakopsora pachyrhizi, Table D-2
[9] = Phakopsora pachyrhizi, Table F-1
[10] = Phakopsora pachyrhizi, Table F-2

Q: Which results are given for CC(C1CC1)C(O)(Cn1cncn1)c1ccc(Cl)cc1 (stereo not drawn) [cyproconazole]?
A: pest or weed control at 37.333 ppm [1, 4]: 44%; pest or weed control at 64.883 ppm [1, 4]: 68%; pest or weed control at 37.333 ppm ([1]; Table E-1): 44%; pest or weed control at 64.883 ppm ([1]; Table E-1): 68%

Q: What does the source list for OC(Cn1cncn1)(c1ccc(F)cc1)c1ccccc1F (stereo not drawn) [flutriafol]?
A: pest or weed control at 544.265 ppm [1, 5]: 13%; pest or weed control at 544.265 ppm [1, 6]: 13%; pest or weed control at 1124.02 ppm [1, 5]: 52%; pest or weed control at 1124.02 ppm [1, 6]: 52%

Q: Which results are given for CO/C=C(/C(=O)OC)c1ccccc1COc1cccc(C(F)(F)F)n1 [picoxystrobin]?
A: Obsd disease control ([1]; picoxystrobin 20.596 ppm alone, Table B-1): 73%; Obsd disease control ([1]; picoxystrobin 20.596 ppm alone, Table B-2): 73%; Obsd disease control ([1]; picoxystrobin 33.865 ppm alone, Table B-1): 75%; Obsd disease control ([1]; picoxystrobin 33.865 ppm alone, Table B-2): 75%

Q: Which pest or weed control at 486.921 ppm [1, 7] does the source give for CC(C)(C)C(O)(CCc1ccc(Cl)cc1)Cn1cncn1 (stereo not drawn) [tebuconazole] here?
A: Its pest or weed control at 486.921 ppm is 30%.

Q: And the pest or weed control at 486.921 ppm [1, 8]?
A: The pest or weed control at 486.921 ppm was 30%.

Q: What about the pest or weed control at 841.166 ppm [1, 7] of the same molecule?
A: The pest or weed control at 841.166 ppm was 55%.

Q: And the pest or weed control at 841.166 ppm [1, 8]?
A: Its pest or weed control at 841.166 ppm is 55%.

Q: How did the pest or weed control at 46.795 ppm [1, 9] turn out when Fc1ccc([C@]2(Cn3cncn3)O[C@H]2c2ccccc2Cl)cc1 (racemic) [epoxiconazole] was run?
A: Its pest or weed control at 46.795 ppm is 23%.

Q: And the pest or weed control at 46.795 ppm [1, 10]?
A: Its pest or weed control at 46.795 ppm is 23%.

Q: What about the pest or weed control at 89.631 ppm [1, 9] of the same molecule?
A: Its pest or weed control at 89.631 ppm is 70%.

Q: And the pest or weed control at 89.631 ppm [1, 10]?
A: Its pest or weed control at 89.631 ppm is 70%.

Q: Which Obsd disease control ([1]; benzovindiflupyr 0.606 ppm alone, Table G-1) does the source give for Cn1cc(C(=O)Nc2cccc3c2[C@@H]2CC[C@H]3C2=C(Cl)Cl)c(C(F)F)n1 (racemic) [benzovindiflupyr] here?
A: Its Obsd disease control is 67%.

Q: And the Obsd disease control ([1]; benzovindiflupyr 0.606 ppm alone, Table G-2)?
A: Its Obsd disease control is 67%.

Q: And the Obsd disease control ([1]; benzovindiflupyr 0.980 ppm alone, Table G-1)?
A: Its Obsd disease control is 67%.

Q: And the Obsd disease control ([1]; benzovindiflupyr 0.980 ppm alone, Table G-2)?
A: Its Obsd disease control is 67%.

Q: What does the source list for Cn1cc(C(=O)Nc2ccc(F)cc2-c2ccc(Cl)c(Cl)c2)c(C(F)F)n1 [bixafen]?
A: Obsd disease control ([1]; bixafen 11.327 ppm alone, Table C-1): 54%; Obsd disease control ([1]; bixafen 11.327 ppm alone, Table C-2): 54%; Obsd disease control ([1]; bixafen 19.525 ppm alone, Table C-1): 55%; Obsd disease control ([1]; bixafen 19.525 ppm alone, Table C-2): 55%

Q: What does the source list for CON(C(=O)c1cn(C)nc1C(F)F)C(C)Cc1c(Cl)cc(Cl)cc1Cl (stereo not drawn) [pydiflumetofen]?
A: Obsd disease control ([1]; pydiflumetofen 41.364 ppm alone, Table H-1): 49%; Obsd disease control ([1]; pydiflumetofen 41.364 ppm alone, Table H-2): 49%; Obsd disease control ([1]; pydiflumetofen 70.950 ppm alone, Table F-1): 0%; Obsd disease control ([1]; pydiflumetofen 70.950 ppm alone, Table F-2): 0%; Obsd disease control ([1]; pydiflumetofen 128.793 ppm alone, Table H-1): 36%; Obsd disease control ([1]; pydiflumetofen 128.793 ppm alone, Table H-2): 36%; Obsd disease control ([1]; pydiflumetofen 135.850 ppm alone, Table F-1): 73%; Obsd disease control ([1]; pydiflumetofen 135.850 ppm alone, Table F-2): 73%

Q: Which results are given for CC(Cc1ccc(C(C)(C)C)cc1)CN1C[C@@H](C)O[C@@H](C)C1 (stereo partly drawn) [fenpropimorph]?
A: pest or weed control at 242.823 ppm [1, 7]: 33%; pest or weed control at 242.823 ppm [1, 8]: 33%; pest or weed control at 458.587 ppm [1, 7]: 44%; pest or weed control at 458.587 ppm [1, 8]: 44%

Q: For CCO/C(=C\Oc1ccc(C(N)=O)cc1)C(F)(F)F [compound 99], which “Test B disease control rating” value [2] is on record?
A: Its value is 80%.

Q: And the “Test A disease control rating” value [3]?
A: The value was 0%.
